Reference: patent US7282589B2, “Acid addition salt of optically active piperidine compound and process for preparing the same” (UBE Industries, Ltd., priority 1996, dated 2007)
Read-outs that look alike come from different tables or passages of the source.

How the values were obtained:
[1] = Stability test (40° C. and 75% relative humidity, one month); format: physicochemical; conditions: for physicochemical stability (conclusion in words): from the test results of Table 4
Method: After pulverizing the above-mentioned respective compounds, powder passed through a 500 μm sieve was made to be a test sample. Respective samples were divided and placed in glass Petri dishes and preserved at 40° C. and 75% relative humidity. One month later, the samples were taken out, and a weight of contained analogues and a content of (R)-isomer by racemization were measured and compared with those at the beginning of the test.
The sample was dissolved in a mobile phase and the solution was adjusted so as to contain about 0.1% of the sample per ml. With regard to 25 μl of the sample solution, percentages of the respective peak area were measured by a liquid chromatography using an automatic integration method.
About 5 mg of the sample was dissolved in the mobile phase and the solution was adjusted so as to contain about 0.1% of the sample per ml. With regard to 1.5 μl of the sample solution, percentages of the respective peak area were measured by a liquid chromatography using an automatic integration method, and an amount of the (R)-isomer (%) was calculated by the following equation.
[formula] • Q^S: percentage of peak area of (S)-isomer • Q^R: percentage of peak area of (R)-isomer Operation Conditions

[2] = Experiment 1: crystallization of acid addition salts of (S)-piperidine compound (I); format: physicochemical
Method: (S)-Piperidine compound of the formula (I) was dissolved in an organic solvent, and after adding an acid shown in Table 3 to make a uniform solution, the mixture was allowed to stand. When no precipitate is obtained, after the solvent was removed, a less polar solvent was added to the residue and the mixture was allowed to stand again. Except for the case where the acid addition salt is oily or syrupy, the obtained solid material was collected by filtration and dried under reduced pressure.

[3] = Pharmacological effects of the metabolite compared with the (S)-ester
histamine-induced death = experiment: Protective effects on histamine-induced death; format: in vivo, Hartley male guinea pigs; conditions: for Survival ratio (%): p.o., 2 hours before 1.25 mg/kg histamine hydrochloride i.v.; for ED50: Cavia porcellus, po, obtained from the dose-response curve of Table 1
Method: By using Hartley male guinea pigs with a body weight of 250 to 550 g, protective effects on histamine-induced death were tested according to the method of Lands et al. (Journal of Pharmacological Experimental Therapy, vol. 95, p. 45, 1949 (A. M. Lands, J. O. Hoppe, O. H. Siegmund, and F. F. Luduena, J. Pharmacol. Exp. Ther., 95, 45 (1949))). Test animals were fasted overnight (about 14 hours), and then 5 ml/kg of a test substance was orally administrated. Two hours after administration of the test substance, 1.25 mg/kg of histamine hydrochloride was intravenously administrated to induce histamine shock. After induction, symptom of the test animals was observed and the histamine-shock appearing time was measured, and termination of respiration or restoration was also observed.

[4] = tested on: 7 days homologous PCA reaction; experiment: Inhibitory effect on 7 days homologous PCA reaction; format: in vivo, Hartley male guinea pigs; conditions: for Inhibitory ratio (%): p.o., 2 hours before antigen
Method: By using Hartley male guinea pigs with a body weight of 250 to 550 g, inhibitory effect on PCA reaction was tested according to the method of Levine et al. (Journal of Immunology, vol. 106, p. 29, 1971 (B. B. Levine, H. Chang, Jr., and N. M. Vaz, J. Immunol. 106, 29 (1971))). 0.05 ml of guinea pig anti-BPO.BGG-IgE serum diluted 32-fold with a physiological saline was hypodermically administrated to the guinea pig through two points of right and left sandwiching the median line of the back which had been shaved one day before.
After 7 days, 1 ml of a 1% Evans Blue physiological saline solution containing 500 μg of benzylpenicilloyl bovine serum albumin (BPO.BSA) was intravenously administrated to induce a PCA reaction. Thirty minutes later, exsanguination was carried out, and the skin was peeled off and the amount of the leaked dye was measured according to the method of Katayama et al. (Microbiological Immunology, vol. 22, p. 89, 1978 (S. Katayama, H. Shinoya and S. Ohtake, Microbiol. Immunol., 22, 89 (1978))). The test animals were fasted overnight (about 16 hours) and the test substances were orally administrated 2 hours before the administration of the antigen.

[5] = 1 month later, 40° C. and 75% relative humidity

O=C(O)CCCN1CCC(O[C@@H](c2ccc(Cl)cc2)c2ccccn2)CC1.O=S(=O)(O)c1ccccc1 [Benzenesulfonic acid salt, (S)-4-[4-[(4-chlorophenyl)(2-pyridyl)-methoxy]piperidino]butanoic acid monobenzenesulfonic acid salt]
Amount of moisture absorption [1, 5]: 0.18%
Content of (R)-isomer [1, 5]: 0.39%
Content of analogue substance [1, 5]: 0.16%
Content of (R)-isomer ([1]; Beginning): 0.37%
Content of analogue substance ([1]; Beginning): 0.15%
physicochemical stability (conclusion in words) [1]: excellent physicochemical stabilities
Characteristics of acid addition salt [2]: non-hygroscopic crystals

O=C(O)CCCN1CCC(O[C@@H](c2ccc(Cl)cc2)c2ccccn2)CC1.O=C(O)c1ccccc1 [Benzoic acid salt, (S)-4-[4-[(4-chlorophenyl)(2-pyridyl)-methoxy]piperidino]butanoic acid monobenzoic acid salt]
Amount of moisture absorption [1, 5]: 0.05%
Content of (R)-isomer [1, 5]: 0.40%
Content of analogue substance [1, 5]: 1.20%
Content of (R)-isomer ([1]; Beginning): 0.37%
Content of analogue substance ([1]; Beginning): 1.20%
physicochemical stability (conclusion in words) [1]: excellent physicochemical stabilities
Characteristics of acid addition salt [2]: non-hygroscopic crystals

O=C(O)CCCN1CCC(O[C@@H](c2ccc(Cl)cc2)c2ccccn2)CC1 [Example 1, (S)-4-[4-[(4-chlorophenyl)(2-pyridyl)-methoxy]piperidino]butanoic acid]
pharmacological effects compared with the (S)-ester [3]: substantially shows the same pharmacological effects as the (S)-ester

CCOC(=O)CCCN1CCC(O[C@H](c2ccc(Cl)cc2)c2ccccn2)CC1.O=C(O)/C=C/C(=O)O [(R)-ester, ethyl (R)-4-[4-[(4-chlorophenyl) (2-pyridyl)methoxy]piperidino]butanoate fumaric acid salt]
Survival ratio (%) (histamine-induced death; 0.3 mg/kg): 0%
Survival ratio (%) (histamine-induced death; 0.6 mg/kg): 0%
Survival ratio (%) (histamine-induced death; 1.0 mg/kg): 50.0%
Survival ratio (%) (histamine-induced death; 3.0 mg/kg): 62.5%
Survival ratio (%) (histamine-induced death; 10.0 mg/kg): 100%
ED50 (histamine-induced death): 1 mg/kg
Inhibitory ratio (%) ([4]; 0.3 mg/kg): −3.1%
Inhibitory ratio (%) ([4]; 1.0 mg/kg): 13.6%
Inhibitory ratio (%) ([4]; 3.0 mg/kg): 45.8%
Inhibitory ratio (%) ([4]; 10.0 mg/kg): 59.5%

C[C@H](O)C(=O)O [L-Lactic acid]
Characteristics of acid addition salt ([2]; acid molar ratio 1): Oily product

CCOC(=O)CCCN1CCC(O[C@@H](c2ccc(Cl)cc2)c2ccccn2)CC1.O=C(O)/C=C/C(=O)O [(S)-ester, ethyl (S)-4-[4-[(4-chlorophenyl)(2-pyridyl)methoxy]piperidino]butanoate fumaric acid salt]
Survival ratio (%) (histamine-induced death; 0.01 mg/kg): 0%
Survival ratio (%) (histamine-induced death; 0.02 mg/kg): 42.9%
Survival ratio (%) (histamine-induced death; 0.03 mg/kg): 62.5%
Survival ratio (%) (histamine-induced death; 0.06 mg/kg): 100%
Survival ratio (%) (histamine-induced death; 0.1 mg/kg): 100%
ED50 (histamine-induced death): 0.023 mg/kg
potency relative to the (R)-ester (histamine-induced death; ratio of ED50 values): about 43 fold
Inhibitory ratio (%) ([4]; 0.01 mg/kg): 37.3%
Inhibitory ratio (%) ([4]; 0.02 mg/kg): 46.3%
Inhibitory ratio (%) ([4]; 0.03 mg/kg): 56.9%
Inhibitory ratio (%) ([4]; 0.06 mg/kg): 63.4%
Inhibitory ratio (%) ([4]; 0.1 mg/kg): 58.8%
potency relative to the (R)-ester ([4]; compared at the dose which inhibits 50% of the maximum value (i.e., 35%)): ≥ 100 fold
Amount of moisture absorption [1, 5]: 0.45%
Content of (R)-isomer [1, 5]: 1.15%
Content of analogue substance [1, 5]: 2.65%
Content of (R)-isomer ([1]; Beginning): 0.87%
Content of analogue substance ([1]; Beginning): 1.72%
hygroscopicity (in words) ([1]; as shown in the stability test results (Table 4)): hygroscopic
physicochemical stability (conclusion in words) [1]: physicochemically unstable
